Several values for one entry are separate records, joined by “and”; a condition that tells them apart may be missing. Equal entries are not always repeated. Structures can show the parent of a compound that is named as a salt.
Assays:
[1] = Critical micelle concentration by solubilization of a hydrophobic fluorescent dye; type: physicochemical; details: mean ± SD, n = 3
Text: The “Critical Micelle Concentration” (CMC) refers to the concentration of a detergent (e.g., an amphiphile as described herein) in an aqueous solution at which the detergent molecules self-assemble into micelles. Below the CMC, detergents are mostly monomeric; above the CMC, micelle concentration increases linearly with detergent concentration. The CMC is dependent upon many factors and is detergent-specific. The CMC of a detergent can be determined experimentally by measuring the solubilization of a water-insoluble dye or fluorophore while varying the concentration of detergent. A CMC may also be determined by measuring the diminution of the surface tension of an aqueous solution as a function of detergent concentration (CMCs determined by either method correlate with each other). The CMC is determined by extrapolating the plot of solubilization vs. concentration (or surface tension vs. concentration) in the two linear regions above and below the CMC. Where the two lines intersect is the CMC. The CMC can also be determined by the method of Nugebauer, J. M. (1990), Methods in Enzymology, 182:239-253.
TFA-0 forms a hydrogel at concentrations >0.4 wt %, and this compound was not studied further. The other three TFAs are soluble to 5-10 wt % in aqueous media. Critical micelle concentrations (CMC) were determined by monitoring solubilization of a hydrophobic fluorescent dye, […] (Chattopadhyay et al., Anal. Biochem. 1984, 139, 408-412), and the hydrodynamic radii (Rh) of the micelles were determined via dynamic light scattering (DLS). Table 1 compares the data for TFAs with those for DDM, a conventional detergent that is very widely used for MP applications; DDM and the TFAs share maltose as their hydrophilic moieties. CMC values of the three TFAs are smaller than that of DDM, whether CMC is measured in units of mM or wt %.
Analysis of these TFAs for their CMC values provided the data in Table 3.

[2] = Micelle characterization by gel filtration with triple detector analysis (TDA); type: physicochemical; details: for dn/dc, specific refractive index increment / IV, intrinsic viscosity / N, aggregation number of micelles / Rh (nm) / MMW, molecular weight of micelles / Mw/Mn, weight-averaged molecular weight divided by number-averaged molecular weight: TDA; for IV, intrinsic viscosity / N, aggregation number of micelles / Rh (nm) / MMW, molecular weight of micelles: 20 mM HEPES, 150 mM NaCl buffer; for IV, intrinsic viscosity / N, aggregation number of micelles / Rh (nm) / MMW, molecular weight of micelles / Mw/Mn, weight-averaged molecular weight divided by number-averaged molecular weight: mean ± SD; for MMW, molecular weight of micelles: TFA-1 n = 6, DDM n = 8; for Mw/Mn, weight-averaged molecular weight divided by number-averaged molecular weight: micelles; for MW of micelles in water: summary statement
Protocol: Micelles formed by DDM or by TFA-1 in pH 7.0 buffer (20 mM HEPES, 150 mM NaCl) were further characterized by gel filtration using a triple-detector system (Gatta et al., Anal. Biochem. 2010, 404, 21-29), analyzing light scattering, refractive index, and differential pressure (Table 2). In both cases the micelles are globular and monodisperse. TFA-1 micelles contain only 6 molecules, which contrasts with the ˜175 molecules in a DDM micelle. TFA-2 (R=ethyl) behaved similarly to TFA-1 (R=methyl), given the similarity in Rh, but TFA-3 (R=butyl) forms larger micelles. A related trend was observed among lipopeptides, with increasing length of the alkyl appendages leading to increasing micelle size (McGregor et al., Nat. Biotech. 2003, 21, 171-176).
The on-line SEC triple detector array (Gatta et al., Anal. Biochem. 404, 21 (2010)) (Viscotek Corporation, a Malvern Company) used for detergent analysis is composed of 1) a 660 nm differential refractometer for quantifying the concentration C (mg/mL) for all molecules according to their specific refractive index increment do/dc (mL/g) using Snell's Law of Refraction (RI signal=KRI*C*(dn/dc)/RISol), 2), a single right angle 90° static light scattering (RALS) detector for measuring the average mass M (Da) according to the Raleigh Light Scattering Equation for small molecules (LS90° signal=Mavg*RIsol^2*C*(dn/dc)^2)/KLS*Kopt, where Kopt=4*π^2/(λ^4*NA), and 3) an absolute differential viscometer (Haney, J. Appl. Polym. Sci. 30, 3023 (1985)) for measuring differential pressure (DP) and calculating intrinsic viscosity (IV; dL/g) according to Newtonian Viscosity (liquid layers) applied to tubes using Poiseulle's Law (DP signal=IV*C) and for calculating the radius of hydration Rh (nm) according to Einstein's volume of hydration equation for hard spheres (Rh=[( 3/10π)*IV*M/NA]^1/3).
The IV represents molecular shape and for proteins it can vary from 0.017 dl/g for globular shapes to 0.355 dl/g for elongated shapes to 0.499 dl/g for complete denaturation (Scheraga and Mandelkern, J. Chem. Phys. 75, 179-184 (1953); Dutta et al., J. Chromatogr. 536, 113-121 (1991); Chenal et al., J. Biol. Chem. 16, 284(3), 1781-1789 (2009)). The chromatography pump, injector, SEC column (0.75×60 cm TSK G3000 plus guard column), and TDArray are placed in a 4° C. cold box, while the buffer (degassed for more than 1 hr with stir prior use) is at room temperature (RT) to allow it to be run through a RT on-line degasser, which then runs though 3 ft of 4° C. stainless steel tubing before entering the SEC pump, injector and column. The extensive degassing insures an accurate DP measurement. With this configuration, the temperature at the detectors is 6° C. TDA buffer was 20 mM Hepes, 150 mM NaCl, […] and either 0.1 mM TFA-1 or 1 mM DDM. The refractive index of the solvent RISol was measured at 10° C. using an Anton Paar Abbemat temperature controlled refractometer at 589.2 nm. Triple detection data at every 5 Hz data point throughout the complete SEC peak were used for all analysis.
For calibration, the detector response factors KRI and KLS were measured using Ovalbumin Fraction VII (Sigma). Prior to calibration, ovalbumin was first purified by SEC (280 nm detection) at 4° C. to remove small populations of dimers and aggregates, and to insure Gaussian detector peaks for TDA calibration. Ovalbumin was solubilized at 26 mg/mL in TDA buffer at 4° C. for 10 min and clarified by centrifugation (10 min 15,000×g); collecting the top 30% of the SEC elution peak from 500 μL injections yielded monodisperse ovalbumin at 5-7 mg/mL. Ovalbumin mass was 44.3 kDa (Sigma Product Information sheet and references therein) with a 0.701 dA280nm/dc (Pace et al., Prot. Sci. 4(11), 2411-2423 (1995)) and 0.187 dn/dc (Maezawa et al., Biochem. Biophys. Acta 747, 291-297 (1983); Hayashi et al., Methods Enzymol. 172, 514-528 (1989)). […]

Compound	CMC [1]	CMC (wt %) [1]	dn/dc, specific refractive index increment [2]	IV, intrinsic viscosity [2]	N, aggregation number of micelles [2]	Rh (nm) [2]	MMW, molecular weight of micelles [2]	Mw/Mn, weight-averaged molecular weight divided by number-averaged molecular weight [2]	MW of micelles in water [2]
CCCCCCCCCCCCO[C@@H]1O[C@H](CO)[C@@H](O[C@H]2O[C@H](CO)[C@@H](O)[C@H](O)[C@H]2O)[C@H](O)[C@H]1O [DDM, dodecyl-β-D-maltoside, reference compound]	170 µM	0.009 wt % and 0.0087 wt %	0.130 mL/g	0.028 ± 0.009 dL/g	176.4 ± 1.3	3.42 ± 0.04 nm	89982 ± 663 Da	1.01 ± 0.00	~90 kD
C[C@H](CCC(=O)N(C)CCCN(C)C(=O)CC[C@@H](C)[C@H]1CC[C@H]2[C@@H]3CC[C@@H]4C[C@H](O[C@@H]5O[C@H](CO)[C@@H](O[C@H]6O[C@H](CO)[C@@H](O)[C@H](O)[C@H]6O)[C@H](O)[C@H]5O)CC[C@]4(C)[C@H]3C[C@H](O[C@@H]3O[C@H](CO)[C@@H](O[C@H]4O[C@H](CO)[C@@H](O)[C@H](O)[C@H]4O)[C@H](O)[C@H]3O)[C@]12C)[C@H]1CC[C@H]2[C@@H]3CC[C@@H]4C[C@H](O[C@@H]5O[C@H](CO)[C@@H](O[C@H]6O[C@H](CO)[C@@H](O)[C@H](O)[C@H]6O)[C@H](O)[C@H]5O)CC[C@]4(C)[C@H]3C[C@H](O[C@@H]3O[C@H](CO)[C@@H](O[C@H]4O[C@H](CO)[C@@H](O)[C@H](O)[C@H]4O)[C@H](O)[C@H]3O)[C@]12C [TFA-1]	13 ± 1.4 µM	0.0028 ± 0.0003 wt %	0.173 mL/g	0.036 ± 0.005 dL/g	6 and 6.2 ± 0.07	1.96 ± 0.01 nm	13279 ± 157 Da	1.00 ± 0.00	~13 kD

From patent US10316057B2, “Tandem facial amphiphiles” (WISCONSIN ALUMNI RESEARCH FOUNDATION, priority 2011, dated 2019)
